Results: US5444061A, “Anti-cancer compounds” (British Technology Group Limited, priority 1991, dated 1995)

Tests used:
[1] = In vivo stability to cleavage of the central amide linkage of the dipeptide (i.p., mice); set-up: species or system mouse (male C57/DBA2 F1 hybrid); conditions: 100 mg/kg i.p., 1 hour; for Stability (cleavage of the central amide linkage of the dipeptide): based on dipeptide and cleavage product found in plasma and liver
Description: In vivo tests in mice at a dosage of 100 mg/kg with various compounds according to the invention have shown a substantial lack of cleavage of the central amide linkage of the dipeptide as assessed by measurement of the amount of the cleavage product as a percentage of the total of parent compound and cleavage product present in the liver or plasma of a mouse sacrificed 1 hour after intraperitoneal administration of the dipeptide, i.e. cleavage was within the limit of experimental detection which is about 5%. Although a minor degree of cleavage of this amide linkage of the quinazoline is acceptable when it is used in practice, a level of cleavage on administration in vivo of less than 10% is preferred, with no more than about 5% being desirable, especially 2% or 1% or less.
The four compounds were also tested for in vivo stability to cleavage of the central amide linkage of the dipeptide. This test comprised injecting the compound intraperitoneally into male C57/DBA2 (F1 hybrid) mice at a standard dosage rate of 100 mg/kg, sacrificing the animals after 1 hour, removing the plasma, liver and kidneys, homogenising these individually in nine times the volume of 0.1 M Tris HCl at pH 10, precipitating the protein and analysing the product in 0.05 M NaHCO3 by hplc on a Sperisorb C-6 column eluting with acetonitrile/sodium acetate of pH 5.0. UV measurements at 280 and 313 nm were used to detect the dipeptide and the breakdown product of cleavage at the central amide bond of the dipeptide, i.e. the L-glutamic acid derivative or D-glutamic acid derivative. Identification of the parent compound and any breakdown product was effected by Rt comparisons against standard samples of these compounds which have been subjected to the same treatment as the liver, kidney and plasma samples.
The results obtained are shown in the Table, the identification of a compound which is "not cleaved" as compared with a compound which is "cleaved" being made on the basis of the amount of the dipeptide and its cleavage product found in the plasma and the liver.

L1210 cell line = assay: Inhibition of growth of the leukaemia cell line L1210 in cell culture; type: cell-based; conditions: Mus musculus
Excerpt: The test may be similar to that described in UK Patent Specification No. 2065653B; and […]

MCF-7 cell line = assay: Inhibition of growth of the human breast cancer cell line MCF-7 in cell culture; type: cell-based; conditions: MCF7, MCF-7 cell culture, read-out: IC50 against the MCF-7 cell line
Excerpt: The test may be similar to that described by Lippman et al (Cancer Res., 1976, 36, 4595).

[2] = particularly in relation to the liver and kidneys; cited from earlier work
[3] = system: human breast, ovarian and liver cancer; conditions: humans; cited from earlier work

| Compound | location of the remaining part of the parent dipeptide which was detected [1] | Stability (cleavage of the central amide linkage of the dipeptide) [1] | parent dipeptide present in the liver, as a percentage of the total drug administered ([1]; liver, typical experiment) [%] | cleavage product accompanying the parent dipeptide in the plasma [1] | IC50 (L1210 cell line) [nM] | cleavage product in the liver, as a percentage of the total drug administered ([1]; liver, typical experiment) | IC50 (MCF-7 cell line) [nM] | toxicity in humans [2] | activity against human breast, ovarian and liver cancer [3] |
| --- | --- | --- | --- | --- | --- | --- | --- | --- | --- |
| C#CCN(Cc1ccc2nc(C)nc(O)c2c1)c1ccc(C(=O)N[C@@H](CCC(=O)N[C@@H](CCC(=O)O)C(=O)O)C(=O)O)cc1 [L-glu-L-glu] | found mostly in the plasma | cleaved | 1.6±0.8 | a significant amount of the cleavage product | 100 |  |  |  |  |
| C#CCN(Cc1ccc2nc(C)[nH]c(=O)c2c1)c1ccc(C(=O)N[C@H](CCC(=O)N[C@@H](CCC(=O)O)C(=O)O)C(=O)O)cc1 [D-glu-L-glu] |  | cleaved |  |  | 3400 |  |  |  |  |
| C#CCN(Cc1ccc2nc(C)nc(O)c2c1)c1ccc(C(=O)N[C@H](CCC(=O)N[C@H](CCC(=O)O)C(=O)O)C(=O)O)cc1 [Example 10, N-p-[N-(3,4-dihydro-2-methyl-4-oxoquinazolin-6-ylmethyl)-N-(prop-2-ynyl)amino]benzoyl-D-γ-glutamyl-D-glutamic acid] |  | not cleaved |  |  | 1300 |  |  |  |  |
| C#CCN(Cc1ccc2nc(C)nc(O)c2c1)c1ccc(C(=O)N[C@@H](CCC(=O)N[C@H](CCC(=O)O)C(=O)O)C(=O)O)cc1 [Example 1, N-p-[N-(3,4-Dihydro-2-methyl-4-oxoquinazolin-6-ylmethyl)-N-(prop-2-ynyl)amino]benzoyl-L-γ-glutamyl-D-glutamic acid] | found mostly in the plasma | not cleaved | 27±2 | no cleavage product | 180 | no cleavage product | 300 |  |  |
| C#CCN(Cc1ccc2nc(N)[nH]c(=O)c2c1)c1ccc(C(=O)N[C@@H](CCC(=O)O)C(=O)O)cc1 [CB3717] |  |  |  |  |  |  |  | shows symptoms of toxicity in humans, particularly in relation to the liver and kidneys | promising activity against human breast, ovarian and liver cancer |
